No end group written: not given here.
Legend:
DPP IV = target: T1, DPP IV (Sus scrofa, UniProt P22411); assay: DPP IV degradation studies of fatty acid derivatised GIP analogues; assay type: in vitro ADME, porcine; conditions: pig, isolated enzyme dpp iv, pH 7.8, incubation with DPP IV, read-out: % Intact peptide remaining after time (hours)
T1 construct: purchased Sigma (Poole, Dorset, UK)
Protocol: DPP IV degradation studies. GIP and fatty acid derivatised GIP analogues were incubated at 37° C. with purified porcine dipeptidylpeptidase IV (5 mU in 50 mmol/l triethanolamine-HCl; pH 7.8) for 0, 2, 4, 8 and 24 hours (final peptide concentration 2 mmol/l). The reactions were subsequently terminated by addition of 10% (v/v) TFA/water and the reaction products separated using HPLC. […] HPLC peak area data were used to calculate % intact peptide remaining throughout the incubation.

[1] = test system: obese diabetic ob/ob mice; assay: Acute in vivo effects of (Pro3)GIP in obese diabetic ob/ob mice; parameters: species or system mouse
Protocol: Acute in vivo effects of (Pro^3)GIP administration in obese diabetic ob/ob mice. Plasma glucose and insulin responses were evaluated using 8- to 12-week old obese diabetic ob/ob mice following intraperitoneal (i.p.) injection of native GIP, (Pro^3)GIP (25 nmol/kg body weight) or saline (0.9% (w/v) NaCl; control) immediately following the combined injection of GIP (25 nmol/kg body weight) with glucose (18 mmol/kg body weight). All test solutions were administered in a final volume of 8 ml/kg body weight. Blood samples were collected from the cut tip of the tail of conscious mice into chilled fluoride/heparin microcentrifuge tubes (Sarstedt, Numbrecht, Germany) immediately prior to injection and at 15, 30 and 60 minutes post injection. Blood samples were immediately centrifuged using a Beckman microcentrifuge (Beckman Instruments, UK) for 30 seconds at 13000 g and stored at −20° prior to glucose and insulin determinations.
Acute in vivo effects of (Pro^3)GIP on plasma glucose and insulin responses to feeding in obese diabetic ob/ob mice. Plasma glucose and insulin responses were evaluated using 8- to 12-week old ob/ob mice where food was withdrawn for an 18-hour period prior to intraperitoneal injection of saline (0.9% (w/v) NaCl; control) or (Pro^3)GIP (25 nmol/kg body weight). Following injection, the mice were allowed to re-feed for 15 minutes. Blood samples were collected from the cut tip of the tail of conscious mice into chilled fluoride/heparin microcentrifuge tubes (Sarstedt, Numbrecht, Germany) immediately prior to injection and at 15, 30, 60 and 120 minutes post injection. Blood samples were immediately centrifuged using a Beckman microcentrifuge (Beckman Instruments, UK) for 30 seconds at 13000 g and stored at −20° prior to glucose and insulin determinations.
Determination of HbA1c, plasma glucose and insulin concentrations. HbA1c was measured in whole blood by ion-exchange high-performance liquid chromatography using the Menari HA-8140 kit (BIOMEN, Berkshire, UK). Plasma glucose was assayed by an automated glucose oxidase procedure using a Beckman Glucose Analyzer II (Stevens, J. F., 1971, Clinica Chemica Acta 32:199-201) and plasma insulin was determined by RIA (Flatt, P. R. et al., 1981, Diabetologia 20:573-577). Incremental areas under plasma glucose and insulin curves (AUC) were calculated using a computer generated program (CAREA) employing the trapezoidal rule (Burington, R. S., 1973, Handbook of Mathematical Tables and Formulae, New York, McGraw Hill) with baseline subtraction.

[2] = 25 nmol/kg i.p., 15 min re-feeding after 18 h fast

T1 sequence (P22411 whole entry): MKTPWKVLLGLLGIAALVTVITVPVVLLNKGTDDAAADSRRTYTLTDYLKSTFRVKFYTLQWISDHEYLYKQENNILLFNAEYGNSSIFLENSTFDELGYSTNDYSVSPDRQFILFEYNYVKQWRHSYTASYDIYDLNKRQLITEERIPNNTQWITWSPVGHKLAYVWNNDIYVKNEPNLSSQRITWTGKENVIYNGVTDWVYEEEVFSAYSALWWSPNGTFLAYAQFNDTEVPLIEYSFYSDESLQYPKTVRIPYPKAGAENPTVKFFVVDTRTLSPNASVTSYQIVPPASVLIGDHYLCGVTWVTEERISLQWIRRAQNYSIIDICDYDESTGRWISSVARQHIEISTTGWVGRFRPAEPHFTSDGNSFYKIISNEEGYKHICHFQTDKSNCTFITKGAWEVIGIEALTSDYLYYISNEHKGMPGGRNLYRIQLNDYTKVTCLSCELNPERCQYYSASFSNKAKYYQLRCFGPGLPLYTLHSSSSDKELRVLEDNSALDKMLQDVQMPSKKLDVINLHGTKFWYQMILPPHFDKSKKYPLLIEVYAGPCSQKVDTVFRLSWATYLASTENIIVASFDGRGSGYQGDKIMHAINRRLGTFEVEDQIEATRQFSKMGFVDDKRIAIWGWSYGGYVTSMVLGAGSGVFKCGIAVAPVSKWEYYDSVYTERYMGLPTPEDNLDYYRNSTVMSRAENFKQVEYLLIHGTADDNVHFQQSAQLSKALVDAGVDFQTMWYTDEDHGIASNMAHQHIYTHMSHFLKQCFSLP

| Molecule | remaining at 2 h, 2 mmol/l (DPP IV; 2 h) [%] | remaining at 8 h, 2 mmol/l (DPP IV; 8 h) [%] | remaining at 24 h, 2 mmol/l (DPP IV; 24 h) [%] | antagonism of insulin-releasing action of GIP and improvement of glucose tolerance ([1]; 25 nmol/kg i.p. with GIP 25 nmol/kg and glucose 18 mmol/kg) | glycemic excursion compared with glucose alone ([1]; 25 nmol/kg i.p. with GIP and glucose) | glycemic excursion after feeding [1, 2] | insulin response to feeding [1, 2] |
| --- | --- | --- | --- | --- | --- | --- | --- |
| CCCCCCCCCCCCCCCC(=O)NCCCC[C@H](NC(=O)[C@H](Cc1c[nH]c2ccccc12)NC(=O)[C@H](CC(=O)O)NC(=O)[C@H](CC(N)=O)NC(=O)[C@H](CCCCN)NC(=O)[C@H](CCCCN)NC(=O)CNC(=O)[C@H](CCCCN)NC(=O)[C@H](CCC(N)=O)NC(=O)[C@H](C)NC(=O)[C@H](CC(C)C)NC(=O)[C@H](CC(C)C)NC(=O)[C@H](Cc1c[nH]c2ccccc12)NC(=O)[C@H](CC(N)=O)NC(=O)[C@@H](NC(=O)[C@H](Cc1ccccc1)NC(=O)[C@H](CC(=O)O)NC(=O)[C@H](CCC(N)=O)NC(=O)[C@H](CCC(N)=O)NC(=O)[C@H](Cc1c[nH]cn1)NC(=O)[C@@H](NC(=O)[C@H](CCCCN)NC(=O)[C@H](CC(=O)O)NC(=O)[C@H](CCSC)NC(=O)[C@H](C)NC(=O)[C@@H](NC(=O)[C@H](CO)NC(=O)[C@H](Cc1ccc(O)cc1)NC(=O)[C@H](CC(=O)O)NC(=O)[C@H](CO)NC(=O)[C@@H](NC(=O)[C@H](Cc1ccccc1)NC(=O)[C@@H](NC(=O)CNC(=O)[C@H](CCC(=O)O)NC(=O)[C@H](C)NC(=O)[C@H](Cc1ccc(O)cc1)NC(C)=O)[C@@H](C)O)[C@@H](C)CC)[C@@H](C)CC)[C@@H](C)CC)C(C)C)C(=O)N[C@@H](Cc1c[nH]cn1)C(=O)N[C@@H](CC(N)=O)C(=O)N[C@H](C(=O)N[C@H](C(=O)N[C@@H](CCC(N)=O)C(=O)O)[C@@H](C)O)[C@@H](C)CC [N-AcGIP(LysPAL^37)] | 100 | 100 | 100 | – | – | – | – |
| YAPGTFISDYSIAMDKIHQQDFVNWLLAQKGKKNDWKHNITQ [(Pro^3)GIP] | – | – | – | completely antagonised | worse than when glucose was administered alone | worsened | decreased |

Reference: patent US7875587B2, “Peptide analogues of GIP for treatment of diabetes, insulin resistance and obesity” (UUTECH Limited, priority 2004, dated 2011)
